Data reported in patent US4948783A, “Anticariogenic or antiperidontitic method” (Kabushiki Kaisya Advance Kaihatsu kenkyujo, priority 1985, dated 1990).
Values after ≈ are worked out from the molar mass of the structure shown. Where two headings read alike, the source gives them in different places. Each block holds one molecule with its values, some of them ahead of it.

Tests used:
S. mutans = test: Antibacterial activity (MIC) against S. mutans; format: cell-based, Streptococcus mutans (isolated from a human oral cavity); settings: Streptococcus mutans
Experimental: (§1) A sample of vitamin L2 (methylthioadenosine) (Sigma Chemical Company) having the chemical formula shown below was dissolved in water, [drawing 3] the pH was adjusted to 7, and sterilization was carried out by autoclaving at 121° C. for 15 min or by filtration with membrane filters, to form a sterile solution. This sample solution mentioned above was added into a sterile basal medium (refer to Table 1) together with sterile distilled water to adjust the concentration of the sample. To this medium, S. mutans causing dental caries, Actinomyces naeslundii and A. viscosus causing dental caries and periondontitis, and B. gingivalis and Fusobacterium nucleatum causing periodontitis, each bacterium being isolated from a human oral cavity, were repectively inoculated. After incubation at 37° C. for 24 hrs, the MIC (minimal growth-inhibitoryconcentration: μg/ml) against each bacterium was determined. As a control, a 0.85% NaCl solution was used instead of the sample solution of vitamin L2. Furthermore, the effect of vitamin L2 on intestinal bacteria such as S. faecium, S. faecalis, Bifidobacterium bifidum, Lactobacillus acidophilus, and L. fermentum, isolated from the feces of healthy humans, was also determined by the same procedures.

B. gingivalis = test: Antibacterial activity (MIC) against B. gingivalis; format: cell-based, Bacteroides gingivalis (isolated from a human oral cavity); settings: for MIC: Porphyromonas gingivalis
Experimental: as §1

F. nucleatum = test: Antibacterial activity (MIC) against F. nucleatum; format: cell-based, Fusobacterium nucleatum (isolated from a human oral cavity); settings: Fusobacterium nucleatum, GAM broth, 37° C., 24 hrs, read-out: MIC (minimal growth-inhibitory concentration)
Experimental: as §1

S. faecalis = test: Effect on intestinal bacteria (MIC), S. faecalis; format: cell-based, S. faecalis (isolated from the feces of healthy humans); settings: Enterococcus faecalis, Todd-Hewitt broth, 37° C., 24 hrs, read-out: MIC (minimal growth-inhibitory concentration)
Experimental: as §1

L. fermentum = test: Effect on intestinal bacteria (MIC), L. fermentum; format: cell-based, L. fermentum (isolated from the feces of healthy humans); settings: Limosilactobacillus fermentum, Rogosa broth, 37° C., 24 hrs, read-out: MIC (minimal growth-inhibitory concentration)
Experimental: as §1

A. naeslundii = test: Antibacterial activity (MIC) against A. naeslundii; format: cell-based, Actinomyces naeslundii (isolated from a human oral cavity); settings: Actinomyces naeslundii, Brain heart infusion broth, 37° C., 24 hrs, read-out: MIC (minimal growth-inhibitory concentration)
Experimental: as §1

L. acidophilus = test: Effect on intestinal bacteria (MIC), L. acidophilus; format: cell-based; settings: Lactobacillus acidophilus, Rogosa broth, 37° C., 24 hrs, read-out: MIC (minimal growth-inhibitory concentration)
Experimental: as §1

Bif. bifidum = test: Effect on intestinal bacteria (MIC), Bif. bifidum; format: cell-based; settings: Bifidobacterium bifidum, GAM broth, 37° C., 24 hrs, read-out: MIC (minimal growth-inhibitory concentration)
Experimental: as §1

A. viscosus = test: Antibacterial activity (MIC) against A. viscosus; format: cell-based, A. viscosus (isolated from a human oral cavity); settings: Actinomyces viscosus, Brain heart infusion broth, 37° C., 24 hrs, read-out: MIC (minimal growth-inhibitory concentration)
Experimental: as §1

S. faecium = test: Effect on intestinal bacteria (MIC), S. faecium; format: cell-based, S. faecium (isolated from the feces of healthy humans); settings: Enterococcus faecium, Todd-Hewitt broth, 37° C., 24 hrs, read-out: MIC (minimal growth-inhibitory concentration)
Experimental: as §1

[1] = 24 h, S. mutans, same procedures as in Example 1, read-out: MIC, S. mutans (Table 3)
[2] = 24 h, B. gingivalis, same procedures as in Example 1, read-out: MIC, B. gingivalis (Table 3)
[3] = 24 h, read-out: MIC, S. mutans (Table 3)

Structure (SMILES): OC[C@H]1O[C@@H](n2cnc3c(NCc4ccccc4)ncnc32)[C@H](O)[C@@H]1O [Material (3), N-6 benzyladenosine]
MIC (S. mutans; [1]): 1000 mg/L (≈ 2800 µM)
MIC (B. gingivalis; [2]): 250 mg/L (≈ 700 µM)

Structure (SMILES): Nc1nc(Cl)nc2c1ncn2[C@@H]1O[C@H](CO)[C@@H](O)[C@H]1O [Material (4), 2-chloroadenosine]
MIC (S. mutans; [1]): 1000 mg/L (≈ 3310 µM)
MIC (B. gingivalis; [2]): 250 mg/L (≈ 829 µM)

Structure (SMILES): Nc1ncnc2c1ncn2[C@@H]1O[C@H](CO)[C@@H](O)[C@@H]1O [Material (7), spongoadenosine]
MIC (S. mutans; [3]): 1500 mg/L (≈ 5610 µM)
MIC (B. gingivalis; 24 h, read-out: MIC, B. gingivalis (Table 3)): 16 mg/L (≈ 59.9 µM)

Structure (SMILES): CNc1ncnc2c1ncn2[C@@H]1O[C@H](CO)[C@@H](O)[C@H]1O [Material (2), N-6 methyladenosine]
MIC (S. mutans; [1]): 1000 mg/L (≈ 3560 µM)
MIC (B. gingivalis; [2]): 250 mg/L (≈ 889 µM)

Structure (SMILES): Nc1ncnc2c1ncn2[C@@H]1O[C@H](CO)[C@@H](O)[C@H]1O [Material (6), adenosine]
MIC (S. mutans; [3]): 1000 mg/L (≈ 3740 µM)
MIC, B. gingivalis (Table 3) (B. gingivalis; B. gingivalis, same procedures as in Example 1): No inhibition

The next lines start with the values.

MIC (S. mutans; [1]): 250 mg/L (≈ 875 µM)
MIC (B. gingivalis; [2]): 125 mg/L (≈ 438 µM)
Structure (SMILES): Nc1ncnc2c1ncn2[C@@H]1O[C@H](CCl)[C@@H](O)[C@H]1O [Material (1), 5'-deoxy-5'-chloroadenosine]

MIC (S. mutans; [1]): 1000 mg/L (≈ 3980 µM)
MIC (B. gingivalis; [2]): 125 mg/L (≈ 498 µM)
Structure (SMILES): C[C@H]1O[C@@H](n2cnc3c(N)ncnc32)[C@H](O)[C@@H]1O [Material (8), 5'-deoxyadenosine]

MIC (F. nucleatum): 500 mg/L (≈ 1680 µM)
MIC (S. faecalis): > 1000 mg/L
MIC (L. fermentum): 1000 mg/L (≈ 3360 µM)
MIC (A. naeslundii): 32 mg/L (≈ 108 µM)
MIC (L. acidophilus): > 1000 mg/L
MIC (S. mutans; S. mutans, Todd-Hewitt broth, 37° C., 24 hrs, read-out: MIC (minimal growth-inhibitory concentration)): 63 mg/L (≈ 212 µM)
MIC (B. gingivalis; B. gingivalis, GAM broth, 37° C., 24 hrs, read-out: MIC (minimal growth-inhibitory concentration)): 125 mg/L (≈ 420 µM)
MIC (Bif. bifidum): > 1000 mg/L
MIC (A. viscosus): 63 mg/L (≈ 212 µM)
MIC (S. faecium): > 1000 mg/L
Structure (SMILES): CSC[C@H]1O[C@@H](n2cnc3c(N)ncnc32)[C@H](O)[C@@H]1O [vitamin L2, methylthioadenosine]

MIC (S. mutans; [1]): 1500 mg/L (≈ 4420 µM)
MIC (B. gingivalis; [2]): 250 mg/L (≈ 737 µM)
Structure (SMILES): CC(C)CSC[C@H]1O[C@@H](n2cnc3c(N)ncnc32)[C@H](O)[C@@H]1O [Material (5), (5'-deoxy) isobutylthioadenosine]
